Our source for the pEC50 values is patent US11746100B2 (GLOBAL BLOOD THERAPEUTICS, INC., priority 2020, dated 2023).

The target in this assay is T1, human ferroportin (Homo sapiens, UniProt Q9NP59).
T1 construct: luciferase reporter (read with the Nano-Glo Luciferase Assay System); expressed in transfected cells; host or cells: CHO cells, stably transfected, expression induced with doxycycline
T1 sequence (Q9NP59 1-571): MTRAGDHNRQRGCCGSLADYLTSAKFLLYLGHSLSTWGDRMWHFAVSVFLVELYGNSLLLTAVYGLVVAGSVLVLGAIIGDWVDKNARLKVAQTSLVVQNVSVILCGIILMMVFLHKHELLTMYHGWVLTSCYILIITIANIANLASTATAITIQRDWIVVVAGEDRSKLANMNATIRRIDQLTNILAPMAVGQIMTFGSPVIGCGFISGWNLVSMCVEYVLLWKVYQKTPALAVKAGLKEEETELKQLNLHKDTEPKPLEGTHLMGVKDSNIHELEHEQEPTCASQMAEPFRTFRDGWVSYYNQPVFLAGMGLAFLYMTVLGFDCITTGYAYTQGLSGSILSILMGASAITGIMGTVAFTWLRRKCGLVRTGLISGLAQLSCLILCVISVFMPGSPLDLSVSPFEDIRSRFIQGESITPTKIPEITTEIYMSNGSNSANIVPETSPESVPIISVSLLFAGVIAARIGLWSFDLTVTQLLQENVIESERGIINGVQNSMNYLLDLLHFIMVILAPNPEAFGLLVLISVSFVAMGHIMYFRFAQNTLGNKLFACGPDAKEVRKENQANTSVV
The assay is described as follows: Biological in-vitro ferroportin internalization assay (luciferase reporter). As to conditions: average pEC50; stably-transfected CHO cell line expressing human ferroportin tagged to a luciferase reporter; 6 h incubation with test compound. It counts as cell-based. An outline of the steps: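 Stably transfected CHO cells expressing luciferase-tagged human ferroportin, plated 24 h with ferric ammonium citrate and induced with doxycycline for 24 h. Compounds incubated 6 h, then luciferase activity measured by Nano-Glo; average pEC50 reported.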
What is called pEC50 is the EC50 on a negative log10 scale, so that one unit is a factor of ten. Read a high pEC50 as a small EC50. As for `Cn1cnc(-c2nc3c(c(N4CCCCCC4)n2)CCC3)c1` [Compound 97, 1-[2-(1-methyl-1H-imidazol-4-yl)-5H,6H,7H-cyclopenta[d]pyrimidin-4-yl]azepane], the pEC50 is given as 7.1.

For `COc1ccnc(-c2nc3c(c(N(C)CC(=O)NC(C)(C)CO)n2)CCC3)c1` [Compound 136, N-(1-hydroxy-2-methylpropan-2-yl)-2-{[2-(4-methoxypyridin-2-yl)-5H,6H,7H-cyclopenta[d]pyrimidin-4-yl](methyl)amino}acetamide], the negative logarithm of the EC50 (pEC50) worked out at 7.7.

In the case of `Cc1ccc(NC(=O)CN(C)c2nc(-c3cc4cn[nH]c4cn3)nc3c2CCC3)cn1` [Compound 267, 2-[methyl(2-{1H-pyrazolo[3,4-c]pyridin-5-yl}-5H,6H,7H-cyclopenta[d]pyrimidin-4-yl)amino]-N-(6-methylpyridin-3-yl)acetamide], the pEC50 stood at 7.1.

As for `CN(CC(=O)NC1COC1)c1nc(-c2cc(OCCO)ccn2)nc2c1CCC2` [Compound 374, 2-({2-[4-(2-hydroxyethoxy)pyridin-2-yl]-5H,6H,7H-cyclopenta[d]pyrimidin-4-yl}(methyl)amino)-N-(oxetan-3-yl)acetamide], the negative logarithm of the EC50 (pEC50) turned out to be 7.2. The pEC50 values of the last two molecules are within 0.2 log units of each other.

`COc1cccc(N2CCCN(c3nc(-c4ccccn4)nc4c3CCC4)CC2)c1` [Compound 4, 1-(3-methoxyphenyl)-4-[2-(pyridin-2-yl)-5H,6H,7H-cyclopenta[d]pyrimidin-4-yl]-1,4-diazepane]: the negative-log EC50 (pEC50) is reported as 6.4.

With `CN(CC(=O)Nc1ccc(F)cc1)c1nc(-c2cc(OCCO)ccn2)nc2c1CCC2` [Compound 198, N-(4-fluorophenyl)-2-({2-[4-(2-hydroxyethoxy)pyridin-2-yl]-5H,6H,7H-cyclopenta[d]pyrimidin-4-yl}(methyl)amino)acetamide], the negative logarithm of the EC50 (pEC50) was found to be 8.1.

`CCN(CC)CCOc1ccnc(-c2nc3c(c(N(C)CC(=O)NC(C)(C)C)n2)CCC3)c1` [Compound 400, N-tert-butyl-2-[(2-{4-[2-(diethylamino)ethoxy]pyridin-2-yl}-5H,6H,7H-cyclopenta[d]pyrimidin-4-yl)(methyl)amino]acetamide] showed a pEC50 of 8.2. The pEC50 values of the last two molecules are within 0.2 log units of each other.

`CC(C)NC(=O)CN(C)c1nc(-c2cc(OCCN3CCOCC3)ccn2)nc2c1CCC2` [Compound 430, 2-[methyl(2-{4-[2-(morpholin-4-yl)ethoxy]pyridin-2-yl}-5H,6H,7H-cyclopenta[d]pyrimidin-4-yl)amino]-N-(propan-2-yl)acetamide]: the pEC50 is 8.

Turning to `CCN1CC[C@@H](Oc2ccnc(-c3nc4c(c(N(C)CC(=O)NC(C)(C)C)n3)CCC4)c2)C1` [Compound 496, N-tert-butyl-2-{[2-(4-{[(3R)-1-ethylpyrrolidin-3-yl]oxy}pyridin-2-yl)-5H,6H,7H-cyclopenta[d]pyrimidin-4-yl](methyl)amino}acetamide], the negative-log EC50 (pEC50) is listed as 8.0.

Turning to `COCCOc1ccnc(-c2nc3c(c(N(C)CC(=O)NC(C)(C)C)n2)CCC3)c1` [Compound 239, N-tert-butyl-2-({2-[4-(2-methoxyethoxy)pyridin-2-yl]-5H,6H,7H-cyclopenta[d]pyrimidin-4-yl}(methyl)amino)acetamide], the pEC50 is given as 7.8.

Regarding `CN(CC(=O)NC(C)(C)C)c1nc(-c2cc(OCCN3C[C@@H]4C[C@H]3CO4)ccn2)nc2c1CCC2` [Compound 461, N-tert-butyl-2-{methyl[2-(4-{2-[(1S,4S)-2-oxa-5-azabicyclo[2.2.1]heptan-5-yl]ethoxy}pyridin-2-yl)-5H,6H,7H-cyclopenta[d]pyrimidin-4-yl]amino}acetamide], the pEC50 is given as 8.3.

Turning to `C[C@H](CO)Oc1ccnc(-c2nc3c(c(N(C)CC(=O)NC(C)(C)C)n2)CCC3)c1` [Compound 384, N-tert-butyl-2-{[2-(4-{[(2R)-1-hydroxypropan-2-yl]oxy}pyridin-2-yl)-5H,6H,7H-cyclopenta[d]pyrimidin-4-yl](methyl)amino}acetamide], the pEC50 came to 8.1.

The molecule `CN(CC(=O)Nc1ccccc1F)c1nc(-c2ccccn2)nc2c1CCC2` [Compound 22, N-(2-fluorophenyl)-2-{methyl[2-(pyridin-2-yl)-5H,6H,7H-cyclopenta[d]pyrimidin-4-yl]amino}acetamide] showed a pEC50 of 7.

`CN(CC(=O)NC(C)(C)C)c1nc(-c2cc(OCC3CC3)ccn2)nc2c1CCC2` [Compound 159, N-tert-butyl-2-({2-[4-(cyclopropylmethoxy)pyridin-2-yl]-5H,6H,7H-cyclopenta[d]pyrimidin-4-yl}(methyl)amino)acetamide] yielded a pEC50 of 8.0.

Regarding `CN(CC(=O)NC(C)(C)C)c1cc(-c2ncccn2)nc2c1CCC2` [Compound 67, N-tert-butyl-2-{methyl[2-(pyrimidin-2-yl)-5H,6H,7H-cyclopenta[b]pyridin-4-yl]amino}acetamide], the negative logarithm of the EC50 (pEC50) is on record as 6.6.

In the case of `CN(CC(=O)N1CCCCC1)c1nc(-c2cc3ccccc3cn2)nc2c1CCC2` [Compound 255, 2-{[2-(isoquinolin-3-yl)-5H,6H,7H-cyclopenta[d]pyrimidin-4-yl](methyl)amino}-1-(piperidin-1-yl)ethan-1-one], the negative-log EC50 (pEC50) is recorded as 6.9.

In turn, `CN(CC(=O)NC(C)(C)C)c1nc(-c2cc(OCC3(O)CCCC3)ccn2)nc2c1CCC2` [Compound 381, N-tert-butyl-2-[(2-{4-[(1-hydroxycyclopentyl)methoxy]pyridin-2-yl}-5H,6H,7H-cyclopenta[d]pyrimidin-4-yl)(methyl)amino]acetamide] displayed a negative logarithm of the EC50 (pEC50) of 8.3.

In turn, `C[C@H](CN(C)C)Oc1ccnc(-c2nc3c(c(N(C)CC(=O)NC4(C(F)(F)F)CC4)n2)CCC3)c1` [Compound 486, 2-{[2-(4-{[(2R)-1-(dimethylamino)propan-2-yl]oxy}pyridin-2-yl)-5H,6H,7H-cyclopenta[d]pyrimidin-4-yl](methyl)amino}-N-[1-(trifluoromethyl)cyclopropyl]acetamide] displayed a negative-log EC50 (pEC50) of 7.4.

With `CN(CC(=O)NC(C)(C)C)c1nc(-c2cccc(OCCO)n2)nc2c1CCC2` [Compound 39, N-tert-butyl-2-({2-[6-(2-hydroxyethoxy)pyridin-2-yl]-5H,6H,7H-cyclopenta[d]pyrimidin-4-yl}(methyl)amino)acetamide], the negative-log EC50 (pEC50) was 6.3.

In the case of `CN(CC(=O)Nc1ccc(C2CC2)nc1)c1nc(-c2cc(OCCO)ccn2)nc2c1CCC2` [Compound 308, N-(6-cyclopropylpyridin-3-yl)-2-({2-[4-(2-hydroxyethoxy)pyridin-2-yl]-5H,6H,7H-cyclopenta[d]pyrimidin-4-yl}(methyl)amino)acetamide], the pEC50 was 8.1.

The molecule `CN(CC(=O)N1CCCC1)c1nc(-c2cc(OCC(C)(C)O)ccn2)nc2c1CCC2` [Compound 420, 2-({2-[4-(2-hydroxy-2-methylpropoxy)pyridin-2-yl]-5H,6H,7H-cyclopenta[d]pyrimidin-4-yl}(methyl)amino)-1-(pyrrolidin-1-yl)ethan-1-one] returned a pEC50 of 8. The pEC50 values of the last two molecules are within 0.2 log units of each other.

`CN(CC(=O)NC(C)(C)C)c1nc(-c2cc(CCC(C)(C)O)ccn2)nc2c1CCC2` [Compound 481, N-tert-butyl-2-({2-[4-(3-hydroxy-3-methylbutyl)pyridin-2-yl]-5H,6H,7H-cyclopenta[d]pyrimidin-4-yl}(methyl)amino)acetamide] came in with a negative-log EC50 (pEC50) of 7.7.

Take `Cc1cc(OCCO)cc(-c2nc3c(c(N(C)CC(=O)NC(C)(C)C)n2)CCC3)n1` [Compound 427, N-tert-butyl-2-({2-[4-(2-hydroxyethoxy)-6-methylpyridin-2-yl]-5H,6H,7H-cyclopenta[d]pyrimidin-4-yl}(methyl)amino)acetamide]: the pEC50 stood at 7.6. The pEC50 values of the last two molecules are within 0.2 log units of each other.

For `COc1ccnc(-c2nc3c(c(N(C)CC(=O)N[C@H]4CCCC[C@H]4O)n2)CCC3)c1` [Compound 169, N-[(1S,2R)-2-hydroxycyclohexyl]-2-{[2-(4-methoxypyridin-2-yl)-5H,6H,7H-cyclopenta[d]pyrimidin-4-yl](methyl)amino}acetamide], the pEC50 is on record as 7.3.

The molecule `CN(CC(=O)Nc1ccc(F)cc1)c1nc(-c2cc3cn(C)nc3cn2)nc2c1CCC2` [Compound 314, N-(4-fluorophenyl)-2-[methyl(2-{2-methyl-2H-pyrazolo[3,4-c]pyridin-5-yl}-5H,6H,7H-cyclopenta[d]pyrimidin-4-yl)amino]acetamide] gave a pEC50 of 7.6.

As for `CN(c1nc(-c2ccccn2)nc2c1CCC2)[C@H]1CCN(C2(C)CCCC2)C1=O` [Compound 207, (3S)-3-{methyl[2-(pyridin-2-yl)-5H,6H,7H-cyclopenta[d]pyrimidin-4-yl]amino}-1-(1-methylcyclopentyl)pyrrolidin-2-one], the negative logarithm of the EC50 (pEC50) was found to be 7.2.

Regarding `CC(C)NC(=O)CN(C)c1nc(-c2cc(OCCN(C)C)ccn2)nc2c1CCC2` [Compound 428, 2-[(2-{4-[2-(dimethylamino)ethoxy]pyridin-2-yl}-5H,6H,7H-cyclopenta[d]pyrimidin-4-yl)(methyl)amino]-N-(propan-2-yl)acetamide], the pEC50 is 7.5.

The molecule `CN(CC(=O)N[C@@H]1CCC[C@@H]1O)c1nc(-c2cc(OCC(C)(C)O)ccn2)nc2c1CCC2` [Compound 397, 2-({2-[4-(2-hydroxy-2-methylpropoxy)pyridin-2-yl]-5H,6H,7H-cyclopenta[d]pyrimidin-4-yl}(methyl)amino)-N-[(1R,2S)-2-hydroxycyclopentyl]acetamide] registered a negative-log EC50 (pEC50) of 7.6.
